For 21 compounds, Ki and IC50 results are on record in ChEMBL document CHEMBL1140464, “Synthesis and structure-activity relationship of 4-(2-aryl-cyclopropylamino)-quinoline-3-carbonitriles as EGFR tyrosine kinase inhibitors” (Bioorg Med Chem Lett, 2007).

Structures are written as SMILES. pIC50, pKi: −log10 of the molar value. Where only a bound is given, the exact number is not on record here.

For assay [1], the target named is T1, Epidermal growth factor receptor (Homo sapiens, UniProt P00533). Nature of the assay: Inhibition of human recombinant EGFR by fluorescence polarization assay. A general note: Fluorescence polarisation rises when a labelled molecule tumbles more slowly, as on binding a larger partner.
T1 sequence (P00533 whole entry): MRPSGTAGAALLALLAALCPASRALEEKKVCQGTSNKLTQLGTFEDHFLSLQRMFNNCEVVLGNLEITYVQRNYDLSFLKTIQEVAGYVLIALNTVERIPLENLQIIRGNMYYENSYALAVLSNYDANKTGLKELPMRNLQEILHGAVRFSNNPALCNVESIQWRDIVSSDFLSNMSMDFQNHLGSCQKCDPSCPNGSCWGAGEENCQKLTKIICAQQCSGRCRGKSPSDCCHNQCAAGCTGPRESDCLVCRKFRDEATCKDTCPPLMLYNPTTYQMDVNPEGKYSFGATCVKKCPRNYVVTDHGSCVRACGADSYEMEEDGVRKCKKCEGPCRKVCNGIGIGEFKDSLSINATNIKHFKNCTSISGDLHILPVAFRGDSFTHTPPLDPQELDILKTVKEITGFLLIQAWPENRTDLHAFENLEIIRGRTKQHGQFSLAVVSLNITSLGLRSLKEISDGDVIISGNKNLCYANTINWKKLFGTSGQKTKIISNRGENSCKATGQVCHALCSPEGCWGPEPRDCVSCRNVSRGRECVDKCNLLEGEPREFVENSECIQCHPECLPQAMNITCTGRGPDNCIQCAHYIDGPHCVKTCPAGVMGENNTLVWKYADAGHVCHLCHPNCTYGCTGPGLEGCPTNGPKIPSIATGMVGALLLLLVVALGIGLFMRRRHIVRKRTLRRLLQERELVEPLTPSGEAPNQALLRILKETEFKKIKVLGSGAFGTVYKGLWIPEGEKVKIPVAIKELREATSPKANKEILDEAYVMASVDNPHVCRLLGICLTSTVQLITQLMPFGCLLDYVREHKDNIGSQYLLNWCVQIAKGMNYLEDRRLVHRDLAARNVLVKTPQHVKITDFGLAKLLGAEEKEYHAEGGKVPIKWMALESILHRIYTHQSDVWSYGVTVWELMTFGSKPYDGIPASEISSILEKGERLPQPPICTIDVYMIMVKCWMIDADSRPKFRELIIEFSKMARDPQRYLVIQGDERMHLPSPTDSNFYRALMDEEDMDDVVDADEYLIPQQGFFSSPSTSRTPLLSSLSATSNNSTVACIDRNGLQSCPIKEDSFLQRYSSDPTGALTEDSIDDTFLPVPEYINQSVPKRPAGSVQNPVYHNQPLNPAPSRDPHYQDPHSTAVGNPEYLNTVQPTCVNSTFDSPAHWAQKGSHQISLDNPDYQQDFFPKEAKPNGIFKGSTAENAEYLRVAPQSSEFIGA
For assay [2], the target named is Vascular endothelial growth factor receptor 1 (Homo sapiens, UniProt P17948). Nature of the assay: Inhibition of Flt1.
Chain of Vascular endothelial growth factor receptor 1 (P17948 whole entry): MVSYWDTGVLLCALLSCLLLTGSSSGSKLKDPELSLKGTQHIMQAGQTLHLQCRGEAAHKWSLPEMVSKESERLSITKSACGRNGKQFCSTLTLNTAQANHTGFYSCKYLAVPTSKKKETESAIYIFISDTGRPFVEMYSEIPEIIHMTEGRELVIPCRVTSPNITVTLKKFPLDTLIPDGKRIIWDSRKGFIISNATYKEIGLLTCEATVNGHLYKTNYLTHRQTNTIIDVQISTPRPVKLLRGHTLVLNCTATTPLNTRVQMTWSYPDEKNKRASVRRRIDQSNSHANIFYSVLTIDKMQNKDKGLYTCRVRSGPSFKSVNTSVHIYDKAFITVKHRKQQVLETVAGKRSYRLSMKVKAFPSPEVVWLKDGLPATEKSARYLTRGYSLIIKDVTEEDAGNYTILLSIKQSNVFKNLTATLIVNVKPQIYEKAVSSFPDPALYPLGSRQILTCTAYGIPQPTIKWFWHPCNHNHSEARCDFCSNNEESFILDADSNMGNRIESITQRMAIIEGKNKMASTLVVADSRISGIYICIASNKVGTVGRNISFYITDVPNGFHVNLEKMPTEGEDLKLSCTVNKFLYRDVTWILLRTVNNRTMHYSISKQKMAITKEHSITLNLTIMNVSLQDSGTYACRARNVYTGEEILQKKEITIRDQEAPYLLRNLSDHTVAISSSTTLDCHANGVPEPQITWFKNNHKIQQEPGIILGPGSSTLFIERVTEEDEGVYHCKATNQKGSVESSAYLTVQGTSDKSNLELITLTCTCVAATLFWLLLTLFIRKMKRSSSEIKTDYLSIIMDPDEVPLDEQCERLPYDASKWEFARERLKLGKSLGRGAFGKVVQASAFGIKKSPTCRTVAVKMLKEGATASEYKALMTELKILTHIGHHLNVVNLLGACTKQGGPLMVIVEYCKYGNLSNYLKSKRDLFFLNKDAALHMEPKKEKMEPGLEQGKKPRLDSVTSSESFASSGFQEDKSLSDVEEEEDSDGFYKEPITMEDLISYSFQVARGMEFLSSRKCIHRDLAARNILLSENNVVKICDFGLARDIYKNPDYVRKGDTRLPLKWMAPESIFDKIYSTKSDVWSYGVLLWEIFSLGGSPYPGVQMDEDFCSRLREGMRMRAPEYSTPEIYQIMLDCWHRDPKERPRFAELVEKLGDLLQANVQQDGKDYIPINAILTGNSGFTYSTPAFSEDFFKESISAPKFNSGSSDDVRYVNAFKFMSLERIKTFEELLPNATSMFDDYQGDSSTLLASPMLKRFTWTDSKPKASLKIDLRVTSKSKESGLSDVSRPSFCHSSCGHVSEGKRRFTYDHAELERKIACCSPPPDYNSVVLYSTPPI
Assay [3] deals with Vascular endothelial growth factor receptor 2 (Homo sapiens, UniProt P35968). Nature of the assay: Inhibition of KDR.
The target of assay [4] is Tyrosine-protein kinase ABL1 (Homo sapiens, UniProt P00519). Nature of the assay: Inhibition of ABL.
Chain of Tyrosine-protein kinase ABL1 (P00519 whole entry): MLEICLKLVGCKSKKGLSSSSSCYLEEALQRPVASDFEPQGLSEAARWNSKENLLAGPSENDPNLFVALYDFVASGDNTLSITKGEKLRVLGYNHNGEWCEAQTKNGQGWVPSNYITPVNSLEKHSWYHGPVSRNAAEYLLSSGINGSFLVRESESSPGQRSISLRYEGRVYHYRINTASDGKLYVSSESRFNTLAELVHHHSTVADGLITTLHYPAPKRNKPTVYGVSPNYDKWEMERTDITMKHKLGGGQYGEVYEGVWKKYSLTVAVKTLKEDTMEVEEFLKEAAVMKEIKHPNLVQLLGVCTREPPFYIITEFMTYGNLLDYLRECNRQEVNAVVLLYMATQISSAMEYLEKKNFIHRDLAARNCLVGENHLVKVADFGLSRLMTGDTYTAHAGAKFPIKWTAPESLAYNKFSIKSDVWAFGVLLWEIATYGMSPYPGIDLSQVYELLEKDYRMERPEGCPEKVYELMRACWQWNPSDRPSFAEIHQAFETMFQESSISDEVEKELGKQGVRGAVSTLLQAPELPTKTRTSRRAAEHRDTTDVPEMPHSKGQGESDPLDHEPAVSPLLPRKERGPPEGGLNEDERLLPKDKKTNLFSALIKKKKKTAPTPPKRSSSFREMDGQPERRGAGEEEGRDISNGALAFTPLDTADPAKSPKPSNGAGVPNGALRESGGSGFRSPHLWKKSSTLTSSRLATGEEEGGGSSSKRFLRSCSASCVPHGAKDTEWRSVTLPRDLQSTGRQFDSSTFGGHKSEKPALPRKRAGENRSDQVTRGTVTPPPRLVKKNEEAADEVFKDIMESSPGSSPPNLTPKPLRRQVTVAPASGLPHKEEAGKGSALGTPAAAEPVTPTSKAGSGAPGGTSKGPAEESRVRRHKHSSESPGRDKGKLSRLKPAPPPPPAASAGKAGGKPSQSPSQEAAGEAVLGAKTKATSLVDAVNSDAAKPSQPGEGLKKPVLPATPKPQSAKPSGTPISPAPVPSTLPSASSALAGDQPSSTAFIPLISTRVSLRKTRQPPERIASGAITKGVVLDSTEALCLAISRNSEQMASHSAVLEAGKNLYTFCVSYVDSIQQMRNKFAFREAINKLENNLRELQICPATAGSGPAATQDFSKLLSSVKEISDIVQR
Assay [5] has as its target T1, Epidermal growth factor receptor. Nature of the assay: Inhibition of human EGFR autophosphorylation in A431 cells.
Assay [6] addresses Tyrosine-protein kinase SYK (Homo sapiens, UniProt P43405). Nature of the assay: Inhibition of SYK.
Assay [7] addresses Proto-oncogene tyrosine-protein kinase Src (Homo sapiens, UniProt P12931). Briefly: Inhibition of SRC.

Chain of Proto-oncogene tyrosine-protein kinase Src (P12931 2-536 limits assumed): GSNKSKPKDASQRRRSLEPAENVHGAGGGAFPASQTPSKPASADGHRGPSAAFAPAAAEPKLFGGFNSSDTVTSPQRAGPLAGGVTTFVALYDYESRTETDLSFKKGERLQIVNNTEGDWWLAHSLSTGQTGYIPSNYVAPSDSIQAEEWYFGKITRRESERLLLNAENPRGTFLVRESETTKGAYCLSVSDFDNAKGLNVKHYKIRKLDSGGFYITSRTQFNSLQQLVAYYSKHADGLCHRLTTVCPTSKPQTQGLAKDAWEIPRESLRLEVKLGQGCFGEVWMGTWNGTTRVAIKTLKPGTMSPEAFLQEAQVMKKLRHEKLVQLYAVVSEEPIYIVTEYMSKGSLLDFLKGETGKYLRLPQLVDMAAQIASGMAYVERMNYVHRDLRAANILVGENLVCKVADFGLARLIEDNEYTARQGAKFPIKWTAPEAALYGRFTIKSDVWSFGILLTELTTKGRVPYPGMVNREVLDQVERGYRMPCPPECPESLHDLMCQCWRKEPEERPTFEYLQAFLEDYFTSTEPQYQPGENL

The term pKi denotes the negative decadic logarithm of the Ki, by convention in mol/L. Regarding `COc1cc2ncc(C#N)c(N[C@@H]3C[C@H]3c3cccc(Br)c3)c2cc1OC`, the pKi in assay [1] was 7.28.
The term pIC50 denotes the negative decadic logarithm of the IC50, by convention in mol/L. A high value points to a small IC50. On to `COc1cc2c(N[C@@H]3C[C@H]3c3ccccc3)c(C#N)cnc2cc1OCCCN1CCN(C)CC1`, for which the negative-log Ki (pKi) in assay [2] was 6.96; in assay [3], 6.52; in assay [4], 7.36; in assay [1], 8.52; in assay [6], 7.39; in assay [7], 7.57. Further, in assay [5], the pIC50 was 8.24.
With `COc1cc2c(N[C@@H]3C[C@H]3c3ccccc3)c(C#N)cnc2cc1OCCCc1cccnc1`, the negative-log Ki (pKi) was 5.72 in assay [2]; 7.00 in assay [3]; 6.52 in assay [4]; 6.66 in assay [1]; 6.85 in assay [6]; 7.31 in assay [7]. Also, the pIC50 in assay [5] is 6.76.
In the case of `N#Cc1cnc2ccc(-c3ccc(CN4CCOCC4)cc3)cc2c1N[C@@H]1C[C@H]1c1ccccc1`, the pKi in assay [2] is less than 5.00; in assay [3], less than 5.00; in assay [4], less than 5.00; in assay [1], 6.40; in assay [6], less than 5.00; in assay [7] it was 6.24. Besides, the pIC50 in assay [5] was 5.60.
With `COc1cc2ncc(C#N)c(N[C@@H]3C[C@H]3c3ccccc3)c2cc1OC`, the pKi in assay [2] was 5.80; in assay [3] it was 5.68; in assay [4], 6.02; in assay [1], 7.62; in assay [6], 6.60; in assay [7] it was 6.82. For the same compound, the pIC50 in assay [5] was 7.05.
Turning to `COc1cc2ncc(C#N)c(N[C@@H]3C[C@H]3c3ccccc3)c2cc1OCCCc1cccnc1`, the pKi was 5.77 in assay [2]; 6.19 in assay [3]; 5.74 in assay [4]; 7.17 in assay [1]; less than 5.00 in assay [6]; less than 5.00 in assay [7]. The compound also had a negative-log IC50 (pIC50) in assay [5] of 7.17.
`COc1ccc2c(N[C@@H]3C[C@H]3c3ccccc3)c(C#N)cnc2c1`: the pKi in assay [2] is less than 5.00; in assay [3], less than 5.00; in assay [4], less than 5.00; in assay [1] it was 6.74; in assay [6], less than 5.00; in assay [7], 6.77. The negative logarithm of the IC50 (pIC50) in assay [5] is 5.59.
As to `N#Cc1cnc2ccc(-c3cccc(CN4CCOCC4)c3)cc2c1N[C@@H]1C[C@H]1c1ccccc1`, the pKi in assay [2] was less than 5.00; in assay [3], less than 5.00; in assay [4], less than 5.00; in assay [1], 6.47; in assay [6], less than 5.00; in assay [7], 6.55. Moreover, the pIC50 in assay [5] was 5.28.
Consider `COc1cc2ncc(C#N)c(N[C@@H]3C[C@H]3c3ccc(Cl)cc3)c2cc1OC`, for which the pKi in assay [1] is 7.36.
On to `COc1cc2ncc(C#N)c(N[C@@H]3C[C@H]3c3ccccc3)c2cc1OCCCN1CCOCC1`, for which the pKi in assay [2] was 6.04; in assay [3] it was 6.25; in assay [4] it was 5.74; in assay [1], 7.28; in assay [6], less than 5.00; in assay [7] it was less than 5.00.
For the compound `N#Cc1cnc2ccc(-c3ccc(CN)cc3)cc2c1N[C@@H]1C[C@H]1c1ccccc1`, the pKi in assay [2] was 5.85; in assay [3], 5.82; in assay [4], 6.11; in assay [1], 7.40; in assay [6], 6.35; in assay [7], 7.07. Moreover, the pIC50 in assay [5] was 5.68.
As for `COc1cc2ncc(C#N)c(N[C@@H]3C[C@H]3c3ccc(Oc4ccccc4)cc3)c2cc1OC`, the pKi in assay [1] was 7.10.
As to `COc1cc2c(N[C@@H]3C[C@H]3c3ccccc3)c(C#N)cnc2cc1OC1CCN(C)CC1`, the negative-log Ki (pKi) was 5.82 in assay [2]; less than 5.00 in assay [3]; less than 5.00 in assay [4]; 6.44 in assay [1]; less than 5.00 in assay [6]; less than 5.00 in assay [7]. In addition, the pIC50 in assay [5] is 6.44.
On to `COc1cc2ncc(C#N)c(N[C@@H]3C[C@H]3c3ccc(Br)cc3)c2cc1OC`, for which the pKi in assay [1] was 6.66.
On to `COc1ccc2ncc(C#N)c(N[C@@H]3C[C@H]3c3ccccc3)c2c1`, for which the negative logarithm of the Ki (pKi) in assay [2] was less than 5.00; in assay [3], less than 5.00; in assay [4] it was less than 5.00; in assay [1], 6.44; in assay [6], less than 5.00; in assay [7] it was 6.68. Besides, the negative logarithm of the IC50 (pIC50) in assay [5] is 5.08.
For `N#Cc1cnc2cc(-c3ccc(CN4CCOCC4)cc3)ccc2c1N[C@@H]1C[C@H]1c1ccccc1`, the pKi in assay [2] was 6.04; in assay [3] it was 6.77; in assay [1], 7.10; in assay [7], 6.85. The compound further had a pIC50 in assay [5] of 6.63.
With `COc1cc2c(N[C@@H]3C[C@H]3c3ccccc3)c(C#N)cnc2cc1OCCCN1CCOCC1`, the pKi in assay [2] is 6.46; in assay [3] it was 6.38; in assay [4], 6.70; in assay [6] it was less than 5.00; in assay [7], 7.35.
As to `COc1cc2ncc(C#N)c(N[C@@H]3C[C@H]3c3ccccc3)c2cc1OCc1ccccc1`, the negative-log Ki (pKi) in assay [2] was less than 5.00; in assay [3], 5.59; in assay [4] it was less than 5.00; in assay [1] it was 6.92; in assay [6], less than 5.00; in assay [7] it was 6.48. In addition, the pIC50 in assay [5] is 5.79.
`COc1cc2ncc(C#N)c(N[C@@H]3C[C@H]3c3ccccc3F)c2cc1OC`: the negative-log Ki (pKi) in assay [1] was 7.44.
`COCCOc1cc2ncc(C#N)c(N[C@@H]3C[C@H]3c3ccccc3)c2cc1OC`: the negative logarithm of the Ki (pKi) is 5.54 in assay [2]; 6.85 in assay [3]; 6.41 in assay [4]; 7.22 in assay [1]; 6.80 in assay [6]; 6.96 in assay [7]. Moreover, the pIC50 in assay [5] was 7.28.
As to `COc1cc2ncc(C#N)c(N[C@@H]3C[C@H]3c3ccccc3)c2cc1OCCN1CCOCC1`, the pKi in assay [2] is less than 5.00; in assay [3] it was 6.82; in assay [4], less than 5.00; in assay [1] it was 7.19; in assay [6] it was less than 5.00; in assay [7], less than 5.00. Further, in assay [5], the pIC50 was 6.39.
